Where a SMILES comes first, the peptide text is derived from it. The star is where a group is joined. Cbz = O=C(OCc1ccccc1)*
Columns and labels:
[1] = test system: p21^cip1 abundance in mock-infected LU cells; assay: Western blot of p21cip1 abundance in mock-infected, density-arrested LU cells; type: cell-based, human
Experimental: (§1) Cell culture and growth arrest. LU cells (3) were propagated in Eagle's minimum essential medium containing 10% fetal bovine serum and penicillin (100 units/ml)/streptomycin (100 μg/ml) in a 5% CO2 in air atmosphere. The cells were density-arrested as described previously in detail (18).
(§2) Virus stocks and productive infection. The AD169 strain of HCMV was propagated in LU cells as previously described in detail (6). The infectivity of virus stocks was determined by plaque assay (3). Virus stocks typically had infectivities between 8.0×10^6 and 4.0×10^7 plaque-forming units (PFU)/milliliter. LU cells were infected with HCMV as described in detail by Bresnahan et al. (18). Virus stocks and cell cultures were routinely examined for mycoplasma.
(§3) Western blots. Polyclonal or monoclonal antibody for p21^cip1 was obtained from Santa Cruz Biotechnology, Inc. (Santa Cruz, Calif.). Monoclonal antibodies against m-calpain, μ-calpain or calpastatin were generously provided by Dr. R. I. Mellgren (see also 75). Cells were harvested as described previously (18) by dislodging the cells with a cell lifter in phosphate buffered saline. The cells were collected by sedimentation and lysed in NP-40 lysis buffer [50 mM Tris, pH 7.4, 50 mM NaCl, 0.5% NP-40, and 1 mM NaVO3, 50 mM NaF, 1mM phenylmethylsulfonyl fluoride (PMSF), 1 mM dithiothreitol (DTT), 25 μg/ml trypsin inhibitor, 25 μg/ml aprotinin, 1 mM benzamide, and 25 μg/ml pepstatin A added just before use]. Cellular debris was removed by sedimentation and the supernatant fluids were reserved. The protein concentration was determined by the BCA protein assay (Pierce, Rockford, Ill.). Whole cell extracts (40 μg/lane) were fractionated by SDS-polyacrylamide gel electrophoresis (PAGE), and the polypeptides were transferred to nitrocellulose membranes (Bio-Rad Laboratories, Hercules, Calif.) as described previously (18). Antigen-antibody reactions were detected with the enhanced chemiluminescent assay (Amersham Pharmacia Biotech) following the manufacturer's recommendations.
FIGS. 5 and 6. The effect of MG132, an inhibitor of proteasome degradation, on p21^cip1 abundance in HCMV- or mock-infected, density-arrested LU cells. 5. LU cells were density arrested, as described in Materials and Methods. The cell cultures were HCMV (5 PFU/cell)- or mock-infected and then exposed to selected concentrations of MG132 at 24 hr PI. Cell lysates were prepared at 30 hr PI (i.e., 6 hr after […] treatment), and 40 μg of protein from each lysate was resolved by SDS-PAGE. The proteins were transferred to nitrocellulose and probed with antibodies against p21^cip1. Control, cells cultured in the absence of MG132 or its solvent, DMSO. 0, DMSO solvent control, consisting of cells treated with the same concentration of DMSO (0.1%) present in the cultural fluids containing highest concentration of MG132 (10 μM). 6. Represents the abundance of p21^cip1 after MG132 treatment determined by densitometry of the data illustrated in FIG. 5. The data for mock-infected cells (open bars) were calculated relative to the p21^cip1 abundance in untreated mock-infected cells, while the data for HCMV-infected cells (closed bars) were determined relative to the p21^cip1 abundance in untreated HCMV-infected cells.
FIGS. 7 and 8. […]
At the times indicated in the FIG., whole cell lysates were prepared, and 40 μg of protein from each lysate was analyzed by SDS-PAGE. […]

[2] = test system: p21^cip1 abundance in HCMV-infected LU cells; assay: Western blot of p21cip1 abundance in HCMV-infected, density-arrested LU cells; type: cell-based, human
Experimental: as §1, §2
as §3, with “recommendations. […]” for “recommendations.”
FIGS. 9 and 10. The concentration effect of E64d on p21^cip1 abundance in HCMV-infected cells. 9: LU cells were density arrested as described in Materials and Methods. The cells were HCMV (5 PFU/cell) or mock infected, and at 48 hr PI were treated with selected concentrations of E64d. Whole cell lysates were prepared 6 hr later, and 40 μg of protein from each lysate was resolved by SDS-PAGE. The proteins were transferred to nitrocellulose and probed with antibodies to p21^cip1. Mock: mock-infected cells in the absence of drug. Control, untreated HCMV-infected cells. 0, DMSO solvent control, consisting of HCMV-infected cells treated with the same concentration of DMSO solvent (0.1%) contained in the highest concentration of E64d. 10: Represents the abundance of p21^cip1 determined by densitometric analysis of the data in FIG. 9.
FIGS. 11 and 12. The concentration effect of Z-Leu-Leu-H on p21^cip1 abundance in HCMV-infected cells. 11. LU cells were density arrested as described in Materials and Methods. The cells were HCMV (5 PFU/cell) infected, and at 48 hr PI were treated with selected concentrations of Z-Leu-Leu-H. Whole cell lysates were prepared 6 hr later, and 40 μg of protein from each lysate was resolved by SDS-PAGE. The proteins were transferred to nitrocellulose and probed with antibodies to p21^cip1. Mock, Control, and 0 are defined as in the legend to FIG. 9. 12 : Represents the abundance of p21^cip1 determined by densitometric analysis of the data in FIG. 11.
FIGS. 13 and 14. The time course for the effect of E64d on p21^cip1 abundance in HCMV-infected, density-arrested cells. 13: LU cells were density arrested, as described in Materials and Methods. The cells were HCMV (5 PFU/cell) or mock infected, and at the intervals indicated in the Fig., beginning 1 hr after infection, subsets of the cells were treated with E64d (100 μM). […]

CC(C)C[C@@H](C=O)NC(=O)[C@H](CC(C)C)NC(=O)[C@H](CC(C)C)NC(=O)OCc1ccccc1 [MG132] (Cbz-Leu-Leu-Leu-aldehyde)
increase in p21^cip1 abundance relative to DMSO solvent control or cells in the absence of any chemical ([1]; MG132 10 μM, mock-infected density-arrested LU cells, densitometry of Western blot (FIGS. 5 and 6)): 3.6 fold | slope of the concentration effect on p21^cip1 abundance (linear regression analysis) ([1]; mock-infected cells, MG132 0 to 10 μM, p<0.01): 0.33 | change in p21^cip1 abundance (in words) ([1]; mock-infected density-arrested LU cells, MG132 0 to 10 μM): concentration-dependent increase in the abundance of p21^cip1 | slope of the concentration effect on p21^cip1 abundance (linear regression analysis) ([2]; HCMV-infected cells, MG132 0 to 10 μM, p<0.01): 0.19 | change in p21^cip1 abundance (in words) ([2]; HCMV-infected cells, MG132 2.5 μM to 10 μM, compared with mock-infected cells): smaller increases in p21^cip1 abundance

CC(C)CC(C=O)NC(=O)C(CC(C)C)NC(=O)OCc1ccccc1 (stereo not drawn) [Z-Leu-Leu-H]
p21^cip1 abundance as % of that measured in mock-infected cells ([2]; 100 μM, HCMV-infected cells treated at 48 hr PI, lysates 6 hr later): about 72% | protection of p21^cip1, concentration effect (in words) ([2]; HCMV-infected cells treated at 48 hr PI for 6 hr, selected concentrations up to 100 μM): protected p21^cip1 in a concentration-dependent manner
